Results as given in PubChem BioAssay (NCI).
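Five compound concentrations were applied to cells in 96-well plates for 48 hours; endpoints were derived by simple linear interpolation of the resulting dose-response curve. TGI: total growth inhibition.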

How the values were obtained:
Assay in all cases: DTP human tumour cell line panel, 48 h
A498 renal = tested on: A498 renal
T-47D breast = tested on: T-47D breast
EKVX NSCLC = tested on: EKVX NSCLC
UACC-62 melanoma = tested on: UACC-62 melanoma
SW-620 colon = tested on: SW-620 colon
U251 CNS = tested on: U251 CNS
MDA-N = tested on: MDA-N
HCT-15 colon = tested on: HCT-15 colon

## O=C1C2SC34c5c2c2ccccc2n5CCC3CCCN14 (configuration not stated)
A498 renal
  TGI: > 100 µM
T-47D breast
  TGI: > 100 µM
EKVX NSCLC
  TGI: > 100 µM
UACC-62 melanoma
  TGI: > 100 µM
SW-620 colon
  TGI: > 100 µM
U251 CNS
  TGI: > 100 µM
MDA-N
  TGI: > 100 µM
HCT-15 colon
  TGI: > 100 µM

## CC1=NN(c2nc(N)nc(/C(C#N)=C\c3ccc([N+](=O)[O-])s3)n2)C(C)(C)C1
A498 renal
  TGI: 26.8 µM
T-47D breast
  TGI: 0.264 µM
EKVX NSCLC
  TGI: 4.28 µM
UACC-62 melanoma
  TGI: 2.25 µM
U251 CNS
  TGI: 0.221 µM
MDA-N
  TGI: 2.6 µM
HCT-15 colon
  TGI: 0.325 µM

## CCOC(=O)CCC(NC(=O)Cc1ccc(Nc2nc3cc(F)c(F)cc3nc2C(=O)OCC)cc1)C(=O)OCC (configuration not stated)
A498 renal
  TGI: > 100 µM
T-47D breast
  TGI: 78.8 µM
EKVX NSCLC
  TGI: > 100 µM
UACC-62 melanoma
  TGI: > 100 µM
SW-620 colon
  TGI: > 100 µM
U251 CNS
  TGI: > 100 µM
MDA-N
  TGI: > 100 µM
HCT-15 colon
  TGI: > 100 µM

## O=C1Sc2cc3ccccc3cc2C(=O)Sc2ccc(Br)cc21
A498 renal
  TGI: 33.4 µM
T-47D breast
  TGI: 23.8 µM
EKVX NSCLC
  TGI: 28.1 µM
UACC-62 melanoma
  TGI: 10.5 µM
SW-620 colon
  TGI: 14.2 µM
U251 CNS
  TGI: 5.27 µM
MDA-N
  TGI: 18 µM
HCT-15 colon
  TGI: 7.71 µM

## O=C1Nc2cccc(Cl)c2/C1=C\c1c(Cl)nc2n1CCS2
A498 renal
  TGI: > 100 µM
T-47D breast
  TGI: > 100 µM
EKVX NSCLC
  TGI: > 100 µM
UACC-62 melanoma
  TGI: > 100 µM
SW-620 colon
  TGI: > 100 µM
U251 CNS
  TGI: > 100 µM
MDA-N
  TGI: > 100 µM
HCT-15 colon
  TGI: > 100 µM

## COc1cccc(CCNC(=O)Cc2ccccc2CCO)c1
A498 renal
  TGI: > 100 µM
T-47D breast
  TGI: > 100 µM
EKVX NSCLC
  TGI: > 100 µM
UACC-62 melanoma
  TGI: > 100 µM
SW-620 colon
  TGI: > 100 µM
U251 CNS
  TGI: > 100 µM
HCT-15 colon
  TGI: > 100 µM

## COC(=O)/C=C(\C(=O)OC)C1C(=O)Oc2c(C)c(=O)c3ccccc3n21 (configuration not stated)
T-47D breast
  TGI: > 100 µM
EKVX NSCLC
  TGI: > 100 µM
UACC-62 melanoma
  TGI: > 100 µM
SW-620 colon
  TGI: > 100 µM
U251 CNS
  TGI: > 100 µM
MDA-N
  TGI: > 100 µM
HCT-15 colon
  TGI: > 100 µM

## CC(=O)CCn1c(=S)sc2ccccc21
EKVX NSCLC
  TGI: > 100 µM
UACC-62 melanoma
  TGI: > 100 µM
SW-620 colon
  TGI: > 100 µM
U251 CNS
  TGI: > 100 µM
MDA-N
  TGI: > 100 µM
HCT-15 colon
  TGI: > 100 µM

## CCOC1(OCC)C2C=CC1C(COS(=O)(=O)c1ccc(C)cc1)C2COS(=O)(=O)c1ccc(C)cc1 (configuration not stated)
A498 renal
  TGI: 54.9 µM
T-47D breast
  TGI: 85.1 µM
EKVX NSCLC
  TGI: > 100 µM
UACC-62 melanoma
  TGI: > 100 µM
SW-620 colon
  TGI: > 100 µM
U251 CNS
  TGI: > 100 µM
MDA-N
  TGI: > 100 µM
HCT-15 colon
  TGI: > 100 µM

## NC(N)=NS(=O)(=O)c1ccc(NNc2c3ccccc3nc3c(C(=O)Nc4ccc(S(=O)(=O)Nc5ncccn5)cc4)cccc23)cc1
A498 renal
  TGI: > 100 µM
T-47D breast
  TGI: > 100 µM
EKVX NSCLC
  TGI: 96.2 µM
UACC-62 melanoma
  TGI: 48.2 µM
SW-620 colon
  TGI: > 100 µM
U251 CNS
  TGI: > 100 µM
MDA-N
  TGI: > 100 µM
HCT-15 colon
  TGI: > 100 µM

## COc1cc(C2c3cc4c(cc3OC(N3CCCCC3)C2C)OCO4)cc(OC)c1O (configuration not stated)
A498 renal
  TGI: 27.1 µM
T-47D breast
  TGI: > 60.2 µM
EKVX NSCLC
  TGI: > 83.4 µM
SW-620 colon
  TGI: 21.9 µM
U251 CNS
  TGI: > 64.6 µM
MDA-N
  TGI: 5.6 µM
HCT-15 colon
  TGI: > 57.1 µM

## N#CC1C(=S)NC(c2ccccc2)=CC12CCCCC2 (configuration not stated)
A498 renal
  TGI: 50.3 µM
T-47D breast
  TGI: 31.1 µM
EKVX NSCLC
  TGI: 44.6 µM
UACC-62 melanoma
  TGI: 42.7 µM
SW-620 colon
  TGI: > 100 µM
U251 CNS
  TGI: > 100 µM
MDA-N
  TGI: > 100 µM
HCT-15 colon
  TGI: 53 µM

## C=CCn1c(N)c(C#N)c(C#N)c1-c1ccccc1
A498 renal
  TGI: > 100 µM
T-47D breast
  TGI: > 100 µM
EKVX NSCLC
  TGI: > 100 µM
UACC-62 melanoma
  TGI: > 100 µM
SW-620 colon
  TGI: > 100 µM
U251 CNS
  TGI: > 100 µM
MDA-N
  TGI: > 100 µM
HCT-15 colon
  TGI: > 100 µM

## O=C(Nc1ccccc1)c1cc(S(=O)(=O)NC2=NC(c3ccccc3)c3cc(Cl)ccc3N2)c(SSc2cc(Cl)c(C(=O)Nc3ccccc3)cc2S(=O)(=O)NC2=NC(c3ccccc3)c3cc(Cl)ccc3N2)cc1Cl (configuration not stated)
T-47D breast
  TGI: > 100 µM
EKVX NSCLC
  TGI: > 100 µM
UACC-62 melanoma
  TGI: > 100 µM
SW-620 colon
  TGI: > 100 µM
U251 CNS
  TGI: > 100 µM
MDA-N
  TGI: > 100 µM
HCT-15 colon
  TGI: > 100 µM

## CC(=O)N=C1N(/C=C2\C(=O)Oc3ccccc3C2=O)C(=O)/C(=C/c2cccc(Cl)c2Cl)N1C
A498 renal
  TGI: 21.1 µM
T-47D breast
  TGI: > 100 µM
EKVX NSCLC
  TGI: > 100 µM
UACC-62 melanoma
  TGI: > 100 µM
SW-620 colon
  TGI: > 100 µM
U251 CNS
  TGI: > 100 µM
MDA-N
  TGI: > 100 µM
HCT-15 colon
  TGI: 32.5 µM

## Cc1n(Cc2ccccc2)c2c([n+]1C)C(=O)c1ccccc1C2=O
A498 renal
  TGI: 0.653 µM
T-47D breast
  TGI: 1.33 µM
EKVX NSCLC
  TGI: 1.01 µM
UACC-62 melanoma
  TGI: 0.451 µM
SW-620 colon
  TGI: 0.763 µM
U251 CNS
  TGI: 0.131 µM
MDA-N
  TGI: 0.32 µM
HCT-15 colon
  TGI: 16.2 µM

## [N-]=[N+]=Nc1c([N+](=O)[O-])c(=O)n(-c2ccccc2)c2ccccc12
A498 renal
  TGI: > 100 µM
T-47D breast
  TGI: > 100 µM
EKVX NSCLC
  TGI: 64.5 µM
UACC-62 melanoma
  TGI: 59 µM
SW-620 colon
  TGI: 58.4 µM
U251 CNS
  TGI: 49.3 µM
MDA-N
  TGI: 83.2 µM
HCT-15 colon
  TGI: 64.6 µM

## Cn1c(=O)c2c(ncn2CCNC(CO)C(O)c2ccc([N+](=O)[O-])cc2)n(C)c1=O (configuration not stated)
A498 renal
  TGI: > 100 µM
T-47D breast
  TGI: > 100 µM
EKVX NSCLC
  TGI: > 100 µM
UACC-62 melanoma
  TGI: > 100 µM
U251 CNS
  TGI: > 100 µM
MDA-N
  TGI: > 100 µM
HCT-15 colon
  TGI: > 100 µM

## CCO/C(O)=C(/C(=N)N1CCOCC1)C(=O)Nc1ccc(F)cc1
A498 renal
  TGI: > 100 µM
T-47D breast
  TGI: > 100 µM
EKVX NSCLC
  TGI: > 100 µM
UACC-62 melanoma
  TGI: > 100 µM
SW-620 colon
  TGI: > 100 µM
U251 CNS
  TGI: > 100 µM
MDA-N
  TGI: > 100 µM
HCT-15 colon
  TGI: > 100 µM

## CO/N=C(\C(=O)OC(=NC1CCCCC1)NC1CCCCC1)c1csc(NC(c2ccccc2)(c2ccccc2)c2ccccc2)n1
A498 renal
  TGI: > 10 µM
T-47D breast
  TGI: > 10 µM
EKVX NSCLC
  TGI: > 10 µM
SW-620 colon
  TGI: > 10 µM
U251 CNS
  TGI: > 10 µM
MDA-N
  TGI: > 10 µM
HCT-15 colon
  TGI: > 10 µM

## COc1cc(Nc2nc3ccccc3nc2C(=O)O)cc(OC)c1OC
A498 renal
  TGI: 82.5 µM
T-47D breast
  TGI: > 100 µM
EKVX NSCLC
  TGI: > 100 µM
SW-620 colon
  TGI: > 100 µM
U251 CNS
  TGI: > 100 µM
MDA-N
  TGI: > 100 µM
HCT-15 colon
  TGI: > 100 µM

## Nc1ccc2c(c1)C(=O)N1CCC[C@H]1C(=O)N2
A498 renal
  TGI: > 100 µM
T-47D breast
  TGI: > 100 µM
EKVX NSCLC
  TGI: > 100 µM
UACC-62 melanoma
  TGI: > 100 µM
SW-620 colon
  TGI: > 100 µM
U251 CNS
  TGI: > 100 µM
MDA-N
  TGI: > 100 µM
HCT-15 colon
  TGI: > 100 µM

## O=C(O)CCCc1nc2c(n1Cc1ccccc1)C(=O)c1ccccc1C2=O
A498 renal
  TGI: > 100 µM
T-47D breast
  TGI: > 100 µM
EKVX NSCLC
  TGI: > 100 µM
UACC-62 melanoma
  TGI: > 100 µM
SW-620 colon
  TGI: > 100 µM
U251 CNS
  TGI: > 100 µM
MDA-N
  TGI: 67.1 µM
HCT-15 colon
  TGI: > 100 µM

## NC(N)=NCCN1CC2CCC(CC2)C1
A498 renal
  TGI: > 100 µM
T-47D breast
  TGI: > 100 µM
EKVX NSCLC
  TGI: > 100 µM
UACC-62 melanoma
  TGI: > 100 µM
SW-620 colon
  TGI: > 100 µM
U251 CNS
  TGI: > 100 µM
MDA-N
  TGI: > 100 µM
HCT-15 colon
  TGI: > 100 µM
